In PubChem BioAssay (NCI):
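Protocol summary: plate cells (96-well), add compound at 5 concentrations, incubate 48 h, interpolate endpoints linearly. GI50 is the concentration that inhibits growth by half. TGI: total growth inhibition.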

Key:
Assay in all cases: NCI tumour cell line growth inhibition, 48 h
SK-MEL-2 melanoma = tested on: SK-MEL-2 melanoma
SW-620 colon = tested on: SW-620 colon
MCF7 breast = tested on: MCF7 breast
HT29 colon = tested on: HT29 colon
K-562 leukemia = tested on: K-562 leukemia
NCI-H226 lung = tested on: NCI-H226 lung
UACC-62 melanoma = tested on: UACC-62 melanoma
HCT-116 colon = tested on: HCT-116 colon
NCI-H460 lung = tested on: NCI-H460 lung
HL-60(TB) leukemia = tested on: HL-60(TB) leukemia
SF-268 CNS = tested on: SF-268 CNS
KM12 colon = tested on: KM12 colon
SNB-75 CNS = tested on: SNB-75 CNS
SF-539 CNS = tested on: SF-539 CNS
SK-OV-3 ovarian = tested on: SK-OV-3 ovarian
SNB-19 CNS = tested on: SNB-19 CNS
HOP-92 NSCLC = tested on: HOP-92 NSCLC
UO-31 renal = tested on: UO-31 renal
M14 melanoma = tested on: M14 melanoma
EKVX NSCLC = tested on: EKVX NSCLC
CCRF-CEM leukemia = tested on: CCRF-CEM leukemia
RXF 393 renal = tested on: RXF 393 renal
IGROV1 ovarian = tested on: IGROV1 ovarian
SR leukemia = tested on: SR leukemia
TK-10 renal = tested on: TK-10 renal
A498 renal = tested on: A498 renal
HCT-15 colon = tested on: HCT-15 colon
NCI/ADR-RES ovarian = tested on: NCI/ADR-RES ovarian
U251 CNS = tested on: U251 CNS
MDA-MB-231 breast = tested on: MDA-MB-231 breast
DU-145 prostate = tested on: DU-145 prostate
RPMI-8226 leukemia = tested on: RPMI-8226 leukemia
NCI-H522 lung = tested on: NCI-H522 lung
CAKI-1 renal = tested on: CAKI-1 renal
SN12C renal = tested on: SN12C renal
SK-MEL-5 melanoma = tested on: SK-MEL-5 melanoma
MOLT-4 leukemia = tested on: MOLT-4 leukemia
UACC-257 melanoma = tested on: UACC-257 melanoma
LOX IMVI melanoma = tested on: LOX IMVI melanoma
PC-3 prostate = tested on: PC-3 prostate
HCC-2998 colon = tested on: HCC-2998 colon
NCI-H23 lung = tested on: NCI-H23 lung
ACHN renal = tested on: ACHN renal
OVCAR-5 ovarian = tested on: OVCAR-5 ovarian
OVCAR-4 ovarian = tested on: OVCAR-4 ovarian
SF-295 CNS = tested on: SF-295 CNS
COLO 205 colon = tested on: COLO 205 colon
BT-549 breast = tested on: BT-549 breast
786-0 renal = tested on: 786-0 renal
HS 578T breast = tested on: HS 578T breast
MDA-MB-435 = tested on: MDA-MB-435
OVCAR-3 ovarian = tested on: OVCAR-3 ovarian
A549 NSCLC = tested on: A549 NSCLC
SK-MEL-28 melanoma = tested on: SK-MEL-28 melanoma

Compound: CCOc1ccc2cc(-c3nn(CC4CCN(C)CC4)c4ncnc(N)c34)ccc2c1
- GI50 (SK-MEL-2 melanoma): 17 µM
- TGI (SK-MEL-2 melanoma): 32.4 µM
- GI50 (SW-620 colon): 15.7 µM
- TGI (SW-620 colon): 31.7 µM
- GI50 (MCF7 breast): 13.4 µM
- TGI (MCF7 breast): 37.1 µM
- GI50 (HT29 colon): 7.01 µM
- TGI (HT29 colon): 27.3 µM
- GI50 (K-562 leukemia): 11.6 µM
- TGI (K-562 leukemia): 27.7 µM
- GI50 (NCI-H226 lung): 14.2 µM
- TGI (NCI-H226 lung): 40.3 µM
- GI50 (UACC-62 melanoma): 16.3 µM
- TGI (UACC-62 melanoma): 32.5 µM
- GI50 (HCT-116 colon): 12.1 µM
- TGI (HCT-116 colon): 28.1 µM
- GI50 (NCI-H460 lung): 16.7 µM
- TGI (NCI-H460 lung): 33.7 µM
- GI50 (HL-60(TB) leukemia): 15.7 µM
- TGI (HL-60(TB) leukemia): 34.6 µM
- GI50 (SF-268 CNS): 13.7 µM
- TGI (SF-268 CNS): 30.2 µM
- GI50 (KM12 colon): 18 µM
- TGI (KM12 colon): 45.2 µM
- GI50 (SNB-75 CNS): 1.56 µM
- TGI (SNB-75 CNS): 15.9 µM
- GI50 (SF-539 CNS): 14.1 µM
- TGI (SF-539 CNS): 27.2 µM
- GI50 (SK-OV-3 ovarian): 11.2 µM
- TGI (SK-OV-3 ovarian): 36.1 µM
- GI50 (SNB-19 CNS): 15.6 µM
- TGI (SNB-19 CNS): 45.9 µM
- GI50 (HOP-92 NSCLC): 5.9 µM
- TGI (HOP-92 NSCLC): 26.1 µM
- GI50 (UO-31 renal): 4.2 µM
- TGI (UO-31 renal): 19.5 µM
- GI50 (M14 melanoma): 15.8 µM
- TGI (M14 melanoma): 32.5 µM
- GI50 (EKVX NSCLC): 26.4 µM
- TGI (EKVX NSCLC): > 100 µM
- GI50 (CCRF-CEM leukemia): 16.8 µM
- TGI (CCRF-CEM leukemia): 55.2 µM
- GI50 (RXF 393 renal): 4.12 µM
- TGI (RXF 393 renal): 18.6 µM
- GI50 (IGROV1 ovarian): 11.2 µM
- TGI (IGROV1 ovarian): 31.4 µM
- GI50 (SR leukemia): 3.63 µM
- TGI (SR leukemia): 18 µM
- GI50 (TK-10 renal): 14.4 µM
- TGI (TK-10 renal): 34.3 µM
- GI50 (A498 renal): 11.8 µM
- TGI (A498 renal): 25.2 µM
- GI50 (HCT-15 colon): 12.3 µM
- TGI (HCT-15 colon): 30.9 µM
- GI50 (NCI/ADR-RES ovarian): 14.7 µM
- TGI (NCI/ADR-RES ovarian): 28.2 µM
- GI50 (U251 CNS): 12.9 µM
- TGI (U251 CNS): 27.5 µM
- GI50 (MDA-MB-231 breast): 4.52 µM
- TGI (MDA-MB-231 breast): 18.4 µM
- GI50 (DU-145 prostate): 28.4 µM
- TGI (DU-145 prostate): > 100 µM
- GI50 (RPMI-8226 leukemia): 10.3 µM
- TGI (RPMI-8226 leukemia): 30.5 µM
- GI50 (NCI-H522 lung): 16.6 µM
- TGI (NCI-H522 lung): 33.5 µM
- GI50 (CAKI-1 renal): 11.1 µM
- TGI (CAKI-1 renal): 25.8 µM
- GI50 (SN12C renal): 12 µM
- TGI (SN12C renal): 32.1 µM
- GI50 (SK-MEL-5 melanoma): 15.8 µM
- TGI (SK-MEL-5 melanoma): 29.3 µM
- GI50 (MOLT-4 leukemia): 4.84 µM
- TGI (MOLT-4 leukemia): 24.6 µM
- GI50 (UACC-257 melanoma): 14.7 µM
- TGI (UACC-257 melanoma): 30.2 µM
- GI50 (LOX IMVI melanoma): 19.4 µM
- TGI (LOX IMVI melanoma): 59 µM
- GI50 (PC-3 prostate): 17 µM
- TGI (PC-3 prostate): 43.5 µM
- GI50 (HCC-2998 colon): 17.1 µM
- TGI (HCC-2998 colon): 32 µM
- GI50 (NCI-H23 lung): 15.1 µM
- TGI (NCI-H23 lung): 41.6 µM
- GI50 (ACHN renal): 14.7 µM
- TGI (ACHN renal): 33 µM
- GI50 (OVCAR-5 ovarian): 14.4 µM
- TGI (OVCAR-5 ovarian): 32.2 µM
- GI50 (OVCAR-4 ovarian): 12.9 µM
- TGI (OVCAR-4 ovarian): 29.7 µM
- GI50 (SF-295 CNS): 14.5 µM
- TGI (SF-295 CNS): 29.2 µM
- GI50 (COLO 205 colon): 11.9 µM
- TGI (COLO 205 colon): 26.7 µM
- GI50 (BT-549 breast): 13.6 µM
- TGI (BT-549 breast): 29 µM
- GI50 (786-0 renal): 14.5 µM
- TGI (786-0 renal): 29.7 µM
- GI50 (HS 578T breast): 11.1 µM
- TGI (HS 578T breast): 33.7 µM
- GI50 (MDA-MB-435): 12.2 µM
- TGI (MDA-MB-435): 24.7 µM
- GI50 (OVCAR-3 ovarian): 16.2 µM
- TGI (OVCAR-3 ovarian): 39.7 µM
- GI50 (A549 NSCLC): 17.9 µM
- TGI (A549 NSCLC): 40.2 µM
- GI50 (SK-MEL-28 melanoma): 3.12 µM
- TGI (SK-MEL-28 melanoma): 10.1 µM
